# Patent publication US20040127566A1, “Retinoid hepatitis therapy” (priority 2004, published 2004)
# Legend:
# hepatitis-A = assay: Free ATRA (oral) in a patient positive for hepatitis-A (Example 3)
# hepatitis-C = assay: Free ATRA (oral) in a patient positive for hepatitis-C (Example 2)
# [1] = blood, one month subsequent to the 3-week point
# [2] = four months after beginning use of ATRA
# [3] = one month subsequent to the 3-week point
compound,measurement,setting,value
"CC1=C(/C=C/C(C)=C/C=C/C(C)=C/C(=O)O)C(C)(C)CCC1 [free ATRA, all-trans retinoic acid]",viral load,hepatitis-A; [1],"< 1,000 copies/ml"
same,PCR status,hepatitis-A; [2],negative
same,"blood chemistry as to hepatitis A (SPGT and SGOT, bilirubin, alkaline phosphatase)",hepatitis-A; [3],normal
same,viral load,hepatitis-C; [1],< 11000 copies/ml
same,PCR status,hepatitis-C; [2],negative
same,"blood chemistry as to hepatitis C (SPGT and SGOT, bilirubin, alkaline phosphatase)",hepatitis-C; [3],normal
